Test results: ChEMBL document CHEMBL4229332, “Novel multi-target azinesulfonamides of cyclic amine derivatives as potential antipsychotics with pro-social and pro-cognitive effects” (Eur J Med Chem, 2018)
The source made the active and inactive calls. No cut-off for these calls is given here.

How the values were obtained:
[1] = Drug level in Wistar rat plasma at 3 mg/kg, ip measured after 15 mins by LC-MS/MS analysis; type: ADME, organism-based
[2] = molecular target: D(3) dopamine receptor (Homo sapiens) (UniProt P35462); experiment: Antagonist activity at human D3R expressed in CHO-K1 cells assessed as inhibition of dopamine induced cAMP accumulation at 10^-6 M after 30 mins by HTRF method; type: functional, cell-based
[3] = molecular target: T1, 5-hydroxytryptamine receptor 1A (Homo sapiens, UniProt P08908); experiment: Partial agonist activity at human 5-HT1AR expressed in CHO-K1 cells assessed as increase in cAMP accumulation by chemiluminescence-based assay; type: functional, cell-based
T1 sequence (P08908 whole entry): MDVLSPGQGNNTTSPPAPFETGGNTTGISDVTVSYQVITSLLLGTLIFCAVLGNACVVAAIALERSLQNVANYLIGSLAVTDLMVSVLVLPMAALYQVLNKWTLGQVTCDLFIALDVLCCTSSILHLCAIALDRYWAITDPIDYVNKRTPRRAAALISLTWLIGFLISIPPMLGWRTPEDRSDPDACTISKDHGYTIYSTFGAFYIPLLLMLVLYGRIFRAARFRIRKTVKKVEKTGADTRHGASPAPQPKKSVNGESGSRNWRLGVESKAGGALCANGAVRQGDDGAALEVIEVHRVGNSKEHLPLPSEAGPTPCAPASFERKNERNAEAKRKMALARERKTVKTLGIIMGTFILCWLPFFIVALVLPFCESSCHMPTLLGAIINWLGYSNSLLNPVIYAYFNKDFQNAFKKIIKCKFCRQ

[4] = molecular target: T2, 5-hydroxytryptamine receptor 7 (Homo sapiens, UniProt P34969); experiment: Antagonist activity at human 5-HT7R expressed in CHO-K1 cells assessed as inhibition of serotonin-induced cAMP accumulation at 10^-6 M after 30 mins by chemiluminescence-based assay; type: functional, cell-based
[5] = Drug level in Wistar rat plasma at 3 mg/kg, ip measured after 30 mins by LC-MS/MS analysis; type: ADME, organism-based
Rattus norvegicus [6] = experiment: Antipsychotic activity in Sprague-Dawley rat assessed as reduction in PCP-induced hyper-locomotion at 1 to 3 mg/kg, ip pretreated for 60 mins followed by PCP addition measured for 30 mins starting 15 min after rat reintroduction to auto-tracks; type: functional, organism-based
[7] = Drug level in Wistar rat brain at 3 mg/kg, ip measured after 60 mins by LC-MS/MS analysis; type: ADME, organism-based; details: read-out: Drug uptake
[8] = Ratio of drug level in brain to plasma in Wistar rat at 3 mg/kg, ip measured after 30 mins by LC-MS/MS analysis; type: ADME, organism-based; details: read-out: BPR
[9] = Drug level in Wistar rat brain at 3 mg/kg, ip measured after 30 mins by LC-MS/MS analysis; type: ADME, organism-based; details: read-out: Drug uptake
[10] = molecular target: D(2) dopamine receptor (Homo sapiens) (UniProt P14416); experiment: Antagonist activity at human D2LR expressed in CHO-K1 cells assessed as inhibition of dopamine-induced calcium flux by fluorimetric method; type: functional, cell-based
[11] = molecular target: T3, 5-hydroxytryptamine receptor 2A (Homo sapiens, UniProt P28223); experiment: biochemical; type: cell-based, CHO-K1
[12] = Ratio of drug level in brain to plasma in Wistar rat at 3 mg/kg, ip measured after 60 mins by LC-MS/MS analysis; type: ADME, organism-based; details: read-out: BPR
[13] = molecular target: T3, 5-hydroxytryptamine receptor 2A; experiment: Antagonist activity at human 5-HT2AR expressed in HEK293 cells assessed as inhibition of serotonin-induced calcium flux after 30 mins by HTRF method; type: functional, cell-based
[14] = molecular target: T3, 5-hydroxytryptamine receptor 2A; experiment: Antagonist activity at human 5-HT2AR expressed in HEK293 cells assessed as inhibition of serotonin-induced calcium flux at 10^-6 M after 30 mins by HTRF method; type: functional, cell-based
[15] = molecular target: T2, 5-hydroxytryptamine receptor 7; experiment: biochemical
Description: Displacement of [3H]-5-CT from human 5-HT7R expressed in HEK293 cell membranes after 1 hr at 37 degC by microbeta counting method

[16] = molecular target: T4, 5-hydroxytryptamine receptor 1A (Homo sapiens) (UniProt P08908); experiment: Partial agonist activity at human 5-HT1AR expressed in CHO-K1 cells assessed as increase in cAMP accumulation at 10^-6 M by chemiluminescence-based assay relative to serotonin; type: functional, cell-based
T4 sequence (whole entry): T1 sequence (P08908 whole entry)

[17] = molecular target: T2, 5-hydroxytryptamine receptor 7; experiment: Antagonist activity at human 5-HT7R expressed in CHO-K1 cells assessed as inhibition of serotonin-induced cAMP accumulation after 30 mins by chemiluminescence-based assay; type: functional, cell-based
[18] = molecular target: T5, 5-hydroxytryptamine receptor 6 (Homo sapiens, UniProt P50406); experiment: Antagonist activity at human 5-HT6R expressed in CHO-K1 cells assessed as inhibition of serotonin-induced cAMP accumulation at 10^-6 M after 30 mins by chemiluminescence-based assay; type: functional, cell-based
[19] = Ratio of drug level in brain to plasma in Wistar rat at 3 mg/kg, ip measured after 15 mins by LC-MS/MS analysis; type: ADME, organism-based; details: read-out: BPR
[20] = Drug level in Wistar rat brain at 3 mg/kg, ip measured after 15 mins by LC-MS/MS analysis; type: ADME, organism-based; details: read-out: Drug uptake
[21] = Toxicity in ip dosed Sprague-Dawley rat assessed as sedation pretreated for 60 mins followed by PCP addition measured for 30 mins starting 15 min after rat reintroduction to auto-tracks; type: organism-based; details: in vivo
[22] = molecular target: T1, 5-hydroxytryptamine receptor 1A; experiment: biochemical
Description: Displacement of [3H]-8-OH-DPAT from human 5-HT1AR expressed in HEK293 cell membranes after 1 hr by microbeta counting method

[23] = molecular target: D(2) dopamine receptor (Homo sapiens) (UniProt P14416); experiment: Antagonist activity at human D2LR expressed in CHO-K1 cells assessed as inhibition of dopamine-induced calcium flux at 10^-6 M by fluorimetric method; type: functional, cell-based
[24] = Drug level in Wistar rat plasma at 3 mg/kg, ip measured after 60 mins by LC-MS/MS analysis; type: ADME, organism-based
[25] = molecular target: T4, 5-hydroxytryptamine receptor 1A (Homo sapiens); details: CHO-K1, 10^-7 M
[26] = molecular target: T6, Alpha-1A adrenergic receptor (Homo sapiens) (UniProt P35348); experiment: Antagonist activity at human adrenergic alpha1A receptor expressed in CHO cells assessed as inhibition of epinephrine-induced calcium flux by fluorimetric method; type: functional, cell-based
T6 sequence (whole entry): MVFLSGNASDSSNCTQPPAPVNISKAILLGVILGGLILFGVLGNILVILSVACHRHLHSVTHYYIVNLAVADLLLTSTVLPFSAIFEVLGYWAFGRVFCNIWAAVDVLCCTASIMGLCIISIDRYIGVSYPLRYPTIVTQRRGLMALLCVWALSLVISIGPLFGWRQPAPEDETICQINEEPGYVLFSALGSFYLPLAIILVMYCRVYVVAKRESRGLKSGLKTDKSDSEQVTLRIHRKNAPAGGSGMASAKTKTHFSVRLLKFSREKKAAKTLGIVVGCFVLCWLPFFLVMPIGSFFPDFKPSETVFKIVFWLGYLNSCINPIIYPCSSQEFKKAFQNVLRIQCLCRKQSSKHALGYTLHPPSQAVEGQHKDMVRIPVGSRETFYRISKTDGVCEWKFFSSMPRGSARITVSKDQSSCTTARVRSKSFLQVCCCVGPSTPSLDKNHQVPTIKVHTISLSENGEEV

Rattus norvegicus [27] = experiment: Reversal of ketamine-induced working social withdrawal in Sprague-Dawley rat at 1 mg/kg, ip pretreated for 60 mins followed by ketamine administration; type: functional, organism-based
Rattus norvegicus [28] = species on record: Rattus norvegicus; experiment: animal or person; details: Sprague-Dawley, ip, read-out: MED
Description: Antipsychotic activity in ip dosed Sprague-Dawley rat assessed as reduction in PCP-induced hyper-locomotion pretreated for 60 mins followed by PCP addition measured for 30 mins starting 15 min after rat reintroduction to auto-tracks

Rattus norvegicus [29] = experiment: Effect on failure incidence during conditioned avoidance response test in Sprague-Dawley rat at 6 mg/kg, ip administered 60 mins prior to testing; type: ADME, organism-based; details: in vivo, 1 h
Rattus norvegicus [30] = species on record: Rattus norvegicus; experiment: animal or person; details: Sprague-Dawley, ip, read-out: MED; remark: listed apart in the source
Description: Antipsychotic activity in ip dosed Sprague-Dawley rat assessed as suppression of avoidance behavior by avoiding foot shock administered 60 mins prior to test by conditioned avoidance response test

Rattus norvegicus [31] = species on record: Rattus norvegicus; experiment: animal or person; details: Sprague-Dawley, ip, read-out: MED; remark: listed apart in the source
Description: Reversal of PCP-induced cognitive impairment in ip dosed Sprague-Dawley rat assessed as reduction in time spent exploring novel object over familiar object pretreated for 60 mins followed by PCP addition by novel object recognition assay

Rattus norvegicus [32] = experiment: Toxicity in Sprague-Dawley rat assessed as induction of catalepsy at 30 mg/kg, ip measured every 30 mins up to 240 mins by bar test; type: organism-based; details: in vivo
[33] = molecular target: T5, 5-hydroxytryptamine receptor 6; experiment: biochemical
Description: Displacement of [3H]-LSD from human 5-HT6R expressed in HEK293 cell membranes after 1 hr at 37 degC by microbeta counting method

Rattus norvegicus [34] = experiment: Toxicity in Wistar rat assessed as increase in prolactin level at 3 mg/kg, po after 60 mins by ELISA; type: organism-based; details: in vivo, 1 h
[35] = Effect on failure incidence during conditioned avoidance response test in ip dosed Sprague-Dawley rat administered 60 mins prior to testing; type: ADME, organism-based; details: in vivo

T5 sequence (P50406 whole entry): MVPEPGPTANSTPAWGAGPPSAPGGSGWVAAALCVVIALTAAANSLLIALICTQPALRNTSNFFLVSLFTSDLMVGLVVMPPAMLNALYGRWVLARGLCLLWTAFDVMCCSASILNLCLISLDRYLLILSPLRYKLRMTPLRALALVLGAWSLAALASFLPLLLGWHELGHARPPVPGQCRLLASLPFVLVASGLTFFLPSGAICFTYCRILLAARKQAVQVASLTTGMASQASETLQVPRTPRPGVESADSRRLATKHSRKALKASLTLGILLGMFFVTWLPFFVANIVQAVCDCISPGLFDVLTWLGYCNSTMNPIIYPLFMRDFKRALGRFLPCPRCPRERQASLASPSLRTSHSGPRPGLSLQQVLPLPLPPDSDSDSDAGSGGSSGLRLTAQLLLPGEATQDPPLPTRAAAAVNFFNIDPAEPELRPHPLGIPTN
T2 sequence (P34969 whole entry): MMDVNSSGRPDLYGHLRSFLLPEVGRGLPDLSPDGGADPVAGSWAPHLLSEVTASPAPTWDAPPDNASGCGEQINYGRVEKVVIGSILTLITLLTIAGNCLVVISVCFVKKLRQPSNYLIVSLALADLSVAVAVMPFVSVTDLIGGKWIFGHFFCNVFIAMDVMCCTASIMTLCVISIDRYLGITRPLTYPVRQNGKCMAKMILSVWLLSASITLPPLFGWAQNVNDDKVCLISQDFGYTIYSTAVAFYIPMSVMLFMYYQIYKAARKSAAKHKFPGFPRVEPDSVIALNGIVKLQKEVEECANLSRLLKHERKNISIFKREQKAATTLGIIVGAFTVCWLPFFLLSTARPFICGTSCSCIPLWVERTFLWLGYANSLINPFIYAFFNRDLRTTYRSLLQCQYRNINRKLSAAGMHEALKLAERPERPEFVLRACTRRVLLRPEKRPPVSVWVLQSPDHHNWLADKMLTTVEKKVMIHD
T3 sequence (P28223 whole entry): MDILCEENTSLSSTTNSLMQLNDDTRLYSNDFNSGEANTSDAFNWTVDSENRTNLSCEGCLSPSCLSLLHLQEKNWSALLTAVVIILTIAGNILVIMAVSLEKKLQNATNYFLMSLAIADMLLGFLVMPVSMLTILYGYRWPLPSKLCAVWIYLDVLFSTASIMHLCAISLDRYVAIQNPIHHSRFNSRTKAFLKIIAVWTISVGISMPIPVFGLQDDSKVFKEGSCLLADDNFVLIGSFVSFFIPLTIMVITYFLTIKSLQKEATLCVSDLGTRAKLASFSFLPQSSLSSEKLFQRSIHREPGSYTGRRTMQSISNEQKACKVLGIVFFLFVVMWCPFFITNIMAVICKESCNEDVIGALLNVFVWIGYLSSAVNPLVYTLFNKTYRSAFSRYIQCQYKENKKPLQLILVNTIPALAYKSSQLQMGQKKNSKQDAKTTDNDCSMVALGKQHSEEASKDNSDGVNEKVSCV
Chain of D(2) dopamine receptor (Homo sapiens) (P14416 whole entry): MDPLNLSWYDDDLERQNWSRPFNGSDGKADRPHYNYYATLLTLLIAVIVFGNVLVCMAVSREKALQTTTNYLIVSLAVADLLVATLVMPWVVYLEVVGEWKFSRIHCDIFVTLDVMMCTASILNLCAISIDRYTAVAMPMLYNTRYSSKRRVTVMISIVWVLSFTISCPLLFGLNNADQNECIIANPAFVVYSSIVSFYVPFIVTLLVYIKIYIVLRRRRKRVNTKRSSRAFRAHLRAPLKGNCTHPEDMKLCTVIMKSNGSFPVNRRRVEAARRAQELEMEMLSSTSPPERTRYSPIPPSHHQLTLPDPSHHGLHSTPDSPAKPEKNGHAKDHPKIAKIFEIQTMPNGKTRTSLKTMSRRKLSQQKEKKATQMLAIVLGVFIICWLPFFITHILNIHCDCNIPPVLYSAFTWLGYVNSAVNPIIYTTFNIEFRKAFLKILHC
Chain of D(3) dopamine receptor (Homo sapiens) (P35462 whole entry): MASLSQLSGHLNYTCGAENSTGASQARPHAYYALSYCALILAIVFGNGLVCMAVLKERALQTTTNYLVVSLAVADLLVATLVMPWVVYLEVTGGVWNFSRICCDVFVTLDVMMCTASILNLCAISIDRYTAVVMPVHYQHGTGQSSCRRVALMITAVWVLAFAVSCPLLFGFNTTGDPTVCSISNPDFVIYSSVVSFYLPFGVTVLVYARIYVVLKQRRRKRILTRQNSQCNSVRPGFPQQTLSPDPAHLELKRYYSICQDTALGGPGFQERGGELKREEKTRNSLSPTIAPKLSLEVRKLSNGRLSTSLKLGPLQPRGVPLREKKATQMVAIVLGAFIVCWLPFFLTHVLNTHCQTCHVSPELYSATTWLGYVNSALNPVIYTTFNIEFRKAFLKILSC

SMILES: O=S(=O)(c1cncc2ccccc12)N1CCC[C@@H]1CCN1CCN(c2cccc3sccc23)CC1
- concentration at 0.25 h [1]: 564 nM
- inhibition [2]: 78%
- EC50 [3]: 11 nM
- inhibition [4]: 100%
- concentration at 0.5 h [5]: 518 nM
- Activity (Rattus norvegicus [6]): inactive
- concentration at 1 h [7]: 114 nM
- Kp at 0.5 h [8]: 0.48
- concentration at 0.5 h [9]: 242 nM
- Kb [10]: 0.74 nM
- Ki [11]: 26 nM
- Kp at 1 h [12]: 1.24
- Kb [13]: 9.5 nM
- inhibition [14]: 100%
- Ki [15]: 4 nM
- Activity [16]: 36%
- Kb [17]: 0.47 nM
- inhibition [18]: 73%
- Kp at 0.25 h [19]: 0.47
- concentration at 0.25 h [20]: 266 nM
- MTD at 0.5 h [21]: 3 mg/kg
- Ki [22]: 24 nM
- inhibition [23]: 100%
- concentration at 1 h [24]: 96.7 nM

SMILES: O=C(CCCN1CCC2(CC1)C(=O)NCN2c1ccccc1)c1ccc(F)cc1
- inhibition [25]: 100%

SMILES: COc1cccc(OC)c1OCCNCC1COc2ccccc2O1 (configuration not stated)
- Kb [26]: 0.24 nM

SMILES: CN1CCN(C2=Nc3cc(Cl)ccc3Nc3ccccc32)CC1 [CLOZAPINE]
- Activity (Rattus norvegicus [27]): inactive
- minimal effective dose (Rattus norvegicus [28]): 1 mg/kg
- Activity (Rattus norvegicus [29]): Non-Toxic
- minimal effective dose (Rattus norvegicus [30]): 1 mg/kg
- MTD at 0.5 h [21]: 3 mg/kg
- minimal effective dose (Rattus norvegicus [31]): 1 mg/kg

SMILES: O=C1Cc2cc(CCN3CCN(c4nsc5ccccc45)CC3)c(Cl)cc2N1 [ZIPRASIDONE]
- Activity (Rattus norvegicus [27]): inactive
- Activity (Rattus norvegicus [32]): Non-Toxic
- minimal effective dose (Rattus norvegicus [28]): 1 mg/kg
- minimal effective dose (Rattus norvegicus [30]): 1 mg/kg
- MTD at 0.5 h [21]: 3 mg/kg
- Ki [22]: 2 nM
- Ki [33]: 20 nM
- Activity (Rattus norvegicus [34]): Toxic
- minimal effective dose (Rattus norvegicus [31]): 1 mg/kg
- MTD at 1 h [35]: 2 mg/kg

SMILES: O=S(=O)(c1cncc2ccccc12)N1CCC[C@@H]1CCN1CCN(c2nsc3ccccc23)CC1
- concentration at 0.25 h [1]: 472 nM
- concentration at 0.5 h [5]: 376 nM
- Activity (Rattus norvegicus [6]): inactive
- concentration at 1 h [7]: 123 nM
- Kp at 0.5 h [8]: 0.65
- concentration at 0.5 h [9]: 242 nM
- Ki [11]: 10 nM
- Kp at 1 h [12]: 1
- Ki [15]: 3 nM
- Kp at 0.25 h [19]: 0.48
- concentration at 0.25 h [20]: 218 nM
- MTD at 0.5 h [21]: 2 mg/kg
- Ki [22]: 14 nM
- Ki [33]: 40 nM
- concentration at 1 h [24]: 125 nM
